Source: patent US20210261538A1, “PROTEIN ARGININE METHYLTRANSFERASE 5 (PRMT5) DEGRADATION / DISRUPTION COMPOUNDS AND METHODS OF USE” (ICAHN SCHOOL OF MEDICINE AT MOUNT SINAI, priority 2018, published 2021)

Assays:
cancer cells = conditions: EPZ015666 alone (Jin, 2016; Kryukov, 2016); cited from earlier work
MCF-7 cells = assay: Cell proliferation assay (Cell-Titer Glo) in MCF-7 cells; format: cell-based; conditions: 5 μM, 10 days
Experimental: The same starting number of MCF-7 cells were treated with DMSO, 5 μM EPZ015666 or YS43-22 for up to 10 days. Every two days, fresh compounds were constituted in DMEM medium and added to the cell culture. Relative cell numbers were counted every two days (i.e. day 0, 2, 4, 6, 8 and 10) using Cell-Titer Glo kit (Promega). MCF-7 cells were treated with DMSO, EPZ015666 (5 μM), or YS43-22 (5 μM) for 10 days.

MTAP-deleted cells = conditions: cited from earlier work
PRMT5 = PRMT5 (Homo sapiens, UniProt O14744); assay: Western blot of PRMT5 protein levels in MCF-7 cells; format: cell-based; design: endogenous in cells; host or cells: MCF-7; conditions: for suppressing PRMT5 expression: MCF-7 cells (Examples 90-92)
Sequence of PRMT5 (O14744 whole entry): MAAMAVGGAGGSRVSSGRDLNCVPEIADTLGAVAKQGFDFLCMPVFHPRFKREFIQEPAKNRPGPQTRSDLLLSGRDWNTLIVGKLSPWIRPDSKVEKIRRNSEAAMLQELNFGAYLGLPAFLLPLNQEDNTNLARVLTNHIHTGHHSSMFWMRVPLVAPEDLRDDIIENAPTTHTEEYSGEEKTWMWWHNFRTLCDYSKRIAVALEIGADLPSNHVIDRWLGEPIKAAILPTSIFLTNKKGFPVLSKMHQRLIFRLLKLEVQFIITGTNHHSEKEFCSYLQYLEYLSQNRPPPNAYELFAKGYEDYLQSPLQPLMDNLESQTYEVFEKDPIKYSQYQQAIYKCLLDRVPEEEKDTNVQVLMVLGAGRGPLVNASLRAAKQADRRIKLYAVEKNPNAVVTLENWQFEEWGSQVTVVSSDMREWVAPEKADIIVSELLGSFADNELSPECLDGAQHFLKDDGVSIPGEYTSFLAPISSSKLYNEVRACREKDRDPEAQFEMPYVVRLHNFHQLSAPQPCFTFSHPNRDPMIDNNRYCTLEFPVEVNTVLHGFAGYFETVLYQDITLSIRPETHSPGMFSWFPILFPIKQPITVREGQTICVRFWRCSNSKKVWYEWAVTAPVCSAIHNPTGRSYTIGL
Sequence of PRMT5 (Q9BQA1 whole entry partner): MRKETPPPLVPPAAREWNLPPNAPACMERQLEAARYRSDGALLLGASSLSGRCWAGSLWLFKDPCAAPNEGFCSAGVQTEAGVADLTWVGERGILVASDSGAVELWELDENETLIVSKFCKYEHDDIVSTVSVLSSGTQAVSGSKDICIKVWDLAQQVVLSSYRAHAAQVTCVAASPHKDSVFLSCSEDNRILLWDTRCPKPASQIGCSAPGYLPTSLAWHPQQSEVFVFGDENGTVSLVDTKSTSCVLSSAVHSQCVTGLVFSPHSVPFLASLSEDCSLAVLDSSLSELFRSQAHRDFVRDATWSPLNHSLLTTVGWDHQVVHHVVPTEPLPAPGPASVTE
Experimental: MCF-7 cells, HEK293T cells and HeLa cells were cultured in Dulbecco's Modified Eagle Medium (DMEM) supplemented with 10% fetal bovine serum (FBS) in 5% CO2 at 37° C. Jurkat cells were cultured in RPMI 1640 medium supplemented with 10% FBS in 5% CO2 at 37° C. H2171 cells were cultured in HITES medium supplemented with 10% FBS in 5% CO2 at 37° C. HCT116 were cultured in McCoy's 5A medium supplemented with 10% fetal bovine serum (FBS) in 5% CO2 at 37° C. All the cells lines were treated with 5 μM (or indicated concentration) of PRMT5 inhibitor (EPZ015666) or degraders, or equivalent volume of DMSO for 6 days (or indicated time points). Fresh compounds were constituted in medium and used for every 2 days. The antibodies used in this study are: PRMT5 antibody (Active Motif), (3-actin antibody (Sigma), SDMA antibody (collaboration with Cell Signaling Technologies). Cell cultures were harvested at the end of compound treatments and applied subjected to western blotting assay. Briefly, cells were washed with PBS and lysed with RIPA lysis buffer for 20 minutes on ice. Then lysates were centrifuged and the clear supernatant were collected. SDS loading buffer was added to the lysates and then the mixture was boiled at 100° C. for 5 minutes. Samples were loaded to 10% or 12% SDS-PAGE gel and ran at 120V for 1.5 hours. Then the proteins were transferred to PVDF membrane and blocked in 5% milk fat at room temperature for 1 hour. Then the membranes were incubated with indicated antibodies at 4° C. overnight. Membranes were washed with PBST buffer three times for 10 minutes each time and incubated with HRP-conjugated (horse radish peroxidase) secondary antibodies at room temperature for 1 hour. Again the membranes were washed with PBST buffer three times for 10 minutes each time. Finally, the indicated proteins on the membranes were visualized with ECL (enhanced chemiluminescence) reagents. MCF-7 cells were treated with DMSO or indicated compounds at 5 μM for 6 days. […] MCF-7 cells were treated with DMSO or indicated serial dilutions of compounds for 6 days. The PRMT5 protein levels were determined by Western blot.

PRMT5 substrates = assay: Arginine symmetric dimethylation (SDMA Western blot) in MCF-7 cells; format: cell-based; conditions: MCF-7 cells (Examples 90-92)
Experimental: MCF-7 cells, HEK293T cells and HeLa cells were cultured in Dulbecco's Modified Eagle Medium (DMEM) supplemented with 10% fetal bovine serum (FBS) in 5% CO2 at 37° C. Jurkat cells were cultured in RPMI 1640 medium supplemented with 10% FBS in 5% CO2 at 37° C. H2171 cells were cultured in HITES medium supplemented with 10% FBS in 5% CO2 at 37° C. HCT116 were cultured in McCoy's 5A medium supplemented with 10% fetal bovine serum (FBS) in 5% CO2 at 37° C. All the cells lines were treated with 5 μM (or indicated concentration) of PRMT5 inhibitor (EPZ015666) or degraders, or equivalent volume of DMSO for 6 days (or indicated time points). Fresh compounds were constituted in medium and used for every 2 days. The antibodies used in this study are: PRMT5 antibody (Active Motif), (3-actin antibody (Sigma), SDMA antibody (collaboration with Cell Signaling Technologies). Cell cultures were harvested at the end of compound treatments and applied subjected to western blotting assay. Briefly, cells were washed with PBS and lysed with RIPA lysis buffer for 20 minutes on ice. Then lysates were centrifuged and the clear supernatant were collected. SDS loading buffer was added to the lysates and then the mixture was boiled at 100° C. for 5 minutes. Samples were loaded to 10% or 12% SDS-PAGE gel and ran at 120V for 1.5 hours. Then the proteins were transferred to PVDF membrane and blocked in 5% milk fat at room temperature for 1 hour. Then the membranes were incubated with indicated antibodies at 4° C. overnight. Membranes were washed with PBST buffer three times for 10 minutes each time and incubated with HRP-conjugated (horse radish peroxidase) secondary antibodies at room temperature for 1 hour. Again the membranes were washed with PBST buffer three times for 10 minutes each time. Finally, the indicated proteins on the membranes were visualized with ECL (enhanced chemiluminescence) reagents. MCF-7 cells were treated with EPZ015666 or YS43-22 at indicated compound concentrations (μM) for 6 days.

| Structure (SMILES) | inhibition of cancer cell proliferation (cancer cells) | cell growth of MCF-7 cells (MCF-7 cells) | anti-proliferation effect compared with genetic PRMT5 knockdown (MTAP-deleted cells) | PRMT5 protein levels (PRMT5; MCF-7 cells, 5 μM, 6 days, Western blot) | suppressing PRMT5 expression (PRMT5) | suppressing PRMT5 activity (PRMT5 substrates) | PRMT5 protein levels, concentration and time dependence (PRMT5; MCF-7 cells, serial dilutions of compounds, 6 days, Western blot) |
| --- | --- | --- | --- | --- | --- | --- | --- |
| O=C(NC[C@H](O)CN1CCc2ccccc2C1)c1cc(NC2COC2)ncn1 [EPZ015666, reference compound] | failed to optimally inhibit | significantly inhibited | did not lead to a similar anti-proliferation effect | no effect |  |  |  |
| Cc1ncsc1-c1ccc(CNC(=O)[C@@H]2C[C@@H](O)CN2C(=O)[C@@H](NC(=O)COCCOCCOCCOCCOCC(=O)N2CC(Nc3cc(C(=O)NC[C@H](O)CN4CCc5ccccc5C4)ncn3)C2)C(C)(C)C)cc1 [YS31-60, N-((S)-3-(3,4-dihydroisoquinolin-2(1H)-yl)-2-hydroxypropyl)-6-((1-((S)-19-((2S,4R)-4-hydroxy-2-((4-(4-methylthiazol-5-yl)benzyl)carbamoyl)pyrrolidine-1-carbonyl)-20,20-dimethyl-17-oxo-3,6,9,12,15-pentaoxa-18-azahenicosanoyl)azetidin-3-yl)amino)pyrimidine-4-carboxamide] |  |  |  |  | especially effective | especially effective |  |
| O=C1CCC(N2C(=O)c3cccc(NCCCCCCC(=O)N4CC(Nc5cc(C(=O)NC[C@H](O)CN6CCc7ccccc7C6)ncn5)C4)c3C2=O)C(=O)N1 (stereo partly drawn) [YS43-8, N-((S)-3-(3,4-dihydroisoquinolin-2(1H)-yl)-2-hydroxypropyl)-6-((1-(7-((2-(2,6-dioxopiperidin-3-yl)-1,3-dioxoisoindolin-4-yl)amino)heptanoyl)azetidin-3-yl)amino)pyrimidine-4-carboxamide] |  |  |  |  | especially effective | especially effective | concentration- and time-dependent |
| Cc1ncsc1-c1ccc(CNC(=O)[C@@H]2C[C@@H](O)CN2C(=O)[C@@H](NC(=O)CCOCCOCCOCCOCCOCCC(=O)N2CC(Nc3cc(C(=O)NC[C@H](O)CN4CCc5ccccc5C4)ncn3)C2)C(C)(C)C)cc1 [YS43-16, N-((S)-3-(3,4-dihydroisoquinolin-2(1H)-yl)-2-hydroxypropyl)-6-((1-((S)-21-((2S,4R)-4-hydroxy-2-((4-(4-methylthiazol-5-yl)benzyl)carbamoyl)pyrrolidine-1-carbonyl)-22,22-dimethyl-19-oxo-4,7,10,13,16-pentaoxa-20-azatricosanoyl)azetidin-3-yl)amino)pyrimidine-4-carboxamide] |  |  |  |  | especially effective | especially effective |  |
